“Also recorded” adds a separate entry of the source. No end group written: not given here.
Tests used:
[1] = tested on: chicken fibroblast SL29 cells; test: Cell attachment inhibition assay, fibroblasts on CT or CT:GST fusion proteins; format: cell-based; settings: for inhibition of cell attachment to intact CT: RGD peptides 1 mg/ml, JG22 50 μg/ml, FIG. 2; for effect on cell attachment to CTfg substrate / effect on cell attachment to CTfn3 substrate / effect on cell attachment to CTfn6 substrate: equimolar substrates
Protocol: In the cell attachment inhibition assay, a single cell suspension was incubated with a potential inhibitor and then allowed to settle for a fixed period of time onto a solid support that has been coated with the different proteins to be tested (Friedlander, et al., J. Cell Biol. 107: 2329-2340 (1988)). After removing the unbound and loosely bound cells by washing, the attachment and morphology of those cells remaining on the dish were analyzed.
In the cell attachment inhibition assays, cells were incubated with soluble RGD peptides and/or a monoclonal antibody prior to incubation with solid support.
The inhibitors tested were the RGD-containing soluble peptides, GRGDSP and GRGDTP and the mAb JG22 (Developmental Studies Hybridoma Bank at Department of Pharmacology and Molecular Sciences, Johns Hopkins University School of Medicine, Baltimore, Md.). JG22 is a mouse hybridoma which binds to many types of chicken cells, including fibroblasts and muscle, and is specific to chicken (Greve, et al., J. Cell. Biochem. 18: 221-229 (1982)). JG22 is known to perturb cell attachment to extracellular matrix proteins and disrupts the function of the β1 integrin.
The cell attachment inhibition assay was performed essentially as described for the cell attachment assay in Example 5.B., but with the following modifications.
The solid support and cells were prepared as described in Example 5.B. Again, the initial assay was performed using only intact CT for the preparation of the solid support. The inhibitors tested, GRGDSP, GRGDTP, and the mAb JG22, were admixed with separate aliquots of the chicken fibroblast SL29 and DRG cells prior to addition to the solid support containing intact CT. The RGD-containing peptides were added at a final concentration of 1 mg/ml. The mAb JG22 was added at a final concentration of 50 μg/ml. A combination of each of the RGD-containing peptides and mAb JG22 were also incubated with the fibroblast and DRG cells. The cells and potential inhibitors were incubated for 10 minutes at room temperature and then added to the solid support. Fibroblast and DRG cells without inhibitors were also added to the solid support.
After incubation at 37° C. in 5% CO2 for 1 hour, the solid supports were washed three times in PBS with gentle swirling to remove unattached cells. The cells attached to the solid support were fixed in 1% (v/v) glutaraldehyde in PBS and viewed by phase contrast microscopy. The attached cells were counted using a 10× objective and with an eyepiece reticle. Cells were counted in four fields per adsorbed protein spot. Each protein was tested in three separate spots. The number of cells bound was expressed as the average of the twelve measurements±the standard deviation.
The cell attachment inhibition assay was repeated as described above but using all of the CT:GST fusion proteins in place of intact CT for the preparation of the solid support as described in Example 1.
Cell attachment assays were performed essentially as follows. The chicken fibroblast cell line SL29 was grown to confluence in DMEM with 10% FCS and penicillin/streptomycin. The cells were passaged the night before the assay and seeded at a density of 1:2. Cells were harvested in calcium, magnesium free Hank's balanced salt solution (CMF-HBSS) with 20 mM Hepes buffer and 5 mM EDTA added. The cells were then washed in attachment buffer (CMF-HBSS, 10 mM Hepes, 1 mM CaCl2, 1 mM MgCl2, 0.1 mM MnCl2, 2% BSA) three times, counted in a hemocytometer, resuspended to a density of 6×10^5 cells/ml. Dorsal root ganglion (DRG) neurons were prepared for attachment assays as described in Example 5, but were washed and resuspended at a density of 6×10^5 cells/ml in attachment buffer. Inhibitors of attachment were added at this time.
To some samples GRGDSP (SEQ ID NO 11) or GRGDTP (SEQ ID NO 12) peptide was added at a concentration of 1 mg/ml. […]

[2] = tested on: dorsal root ganglia (DRG) neurons; test: Two-dimensional neurite outgrowth assay, DRG, 15 hours; format: cell-based, chicken; settings: DRG neurons
Protocol: Dorsal root ganglia (DRG) cells or forebrain neurons were prepared for the cell attachment assays as follows. DRG from day 6 chicken embryos or forebrains from day 7 chicken embryos were dissected into HBSS. The tissue was pelleted by centrifugation and resuspended in CMF-HBSS and incubated at 37° C. for 10 minutes. The tissue was pelleted again and resuspended in CMF-HBSS containing 0.08% trypsin and allowed to trypsinize for 20 minutes at 37° C. An equal volume of DMEM/F12, 10% FCS, 20 ng/ml nerve growth factor (NGF) (for DRG cells only), 10 μg/ml gentamycin (10% medium) was added, and the tissue was pelleted and resuspended in 2 ml of the 10% medium. The cells were triturated with a fire-polished Pasteur pipette for 15 strokes, and the cells were washed and resuspended in 10 ml of 10% medium. DRG cells were plated in a 10 cm tissue culture dish and incubated for 1 hour at 37° C. in 5% CO2, to allow for attachment of contaminating fibroblasts.
After replating, the cells were harvested, pelleted and washed three times in DMEM/F12, 1% fetal calf serum (FCS), 20 ng/ml NGF (for DRG cells only), 10 μg/ml gentamycin (1% medium), and the number of cells determined using a hemocytometer. The DRG were resuspended to a density of 6×10^5 cells/ml in attachment buffer. The neurons were resuspended to a density of 2×10^4 cells/ml in 1% medium and added to substrates and placed at 37° C., 5% CO2 for 15 hours.
After the growth period, the dishes were gently rinsed with PBS to remove unbound cells, fixed with 1% glutaraldehyde, and viewed by phase contrast microscopy. Ten to forty cells were analyzed for each substrate. Cells were judged as neurite-bearing if the length of the processes was greater than one cell diameter. All cells with neurites were photographed with a 20× objective and total neurite length per neurite-bearing cell was derived from the photographic prints. Percentage of neuronal sprouting was calculated from at least six experiments. Neurite length was calculated from at least three experiments.
This extensive neurite outgrowth after 40 hours made quantitation of the percentage of neurite-bearing cells and neurite length difficult. To analyze quantitatively the effect of CT/TN fusion proteins on DRG neurite outgrowth, DRG cells were therefore plated at low density on CT/TN or CT/TN fragments and analyzed after 15 hours in culture for the percentage of cells that sprouted neurites greater than one cell diameter and for the everage neurite length per neuron. These conditions enhanced the number of isolated cells and discouraged the cell-cell interactions and fasciculation that occurred in the long-term cultures.
The proteins used in the neurite outgrowth assays are the same as those used in the cell attachment assays. […] In addition, poly-L-lysine was adsorbed to the solid support. […] Any cells adhering to the solid support were examined for sprouting and neurite length as defined herein.
Proteins used in the neurite outgrowth assays were prepared as described in Example 5.A.2.
Dorsal root ganglia (DRG) from day 6 chicken embryos were prepared as described in Example 5.A.4. For the neurite outgrowth assays, the DRG were resuspended at a density of 2×10^4 cells/ml in 1% medium, added to solid support, and placed at 37° C. in 5% CO2 for 15 hours. After the attachment and growth period, the dishes were gently rinsed with PBS to remove unbound cells, fixed with 1% (v/v) glutaraldehyde, and viewed by phase contrast microscopy. Ten to thirty cells were analyzed for each adsorbed protein spot. Cells were judged as neurite-bearing if the length of the processes were greater than one cell diameter. All cells with neurites were photographed with a 40× objective and the total neurite length per neurite-bearing cell was derived from the prints. The percent of cells that were sprouting and the average neurite length was derived from six and three independent experiments, respectively. […]

type I collagen = settings: Dedhar et al. 1987; Hynes 1992; cited from earlier work

| Substance | inhibition of SL29 attachment to CT/TN, further analysis ([1]; 1 mg/ml GRGDTP peptide) | inhibition of cell attachment to intact CT [1] | effect on cell attachment to CTfn5-6 substrate ([1]; inhibitor added before plating) | effect on cell attachment to CTfg substrate ([1]; inhibitor added before plating) | effect on cell attachment to CTfn3 substrate ([1]; inhibitor added before plating) | effect on cell attachment to CTfn6 substrate ([1]; inhibitor added before plating) | effect on neurite outgrowth on CTfn3 or CTfn6 substrates [2] | effect on neurite outgrowth on polylysine-coated substrates [2] | inhibition of cell attachment to collagen I (type I collagen) |
| --- | --- | --- | --- | --- | --- | --- | --- | --- | --- |
| GRGDTP [GRGDTP] | 33% | 70% | unaffected | unaffected | completely inhibited; also recorded: selectively inhibited | not effective; also recorded: ineffective | inhibited neurite outgrowth | not on polylysine-coated substrates | active inhibitor; also recorded: inhibit binding to collagen I |
| Gly-Arg-Gly-Asp-Ser-Pro [GRGDSP] | – | 73% | – | unaffected | completely inhibited | only partially inhibited; also recorded: could inhibit | – | – | far less effective inhibitor; also recorded: had no effect; also recorded: generally has no effect |

— patent US6482410B1, “Cytotactin derivatives that stimulate attachment and neurite outgrowth, and methods of making same” (The Scripps Research Institute, priority 1994, dated 2002)
